# Source: ChEMBL document CHEMBL5625187, “A facile and selective derivatization approach on kynurenine-NH2 in daptomycin, leading to the discovery of hexakynomycin to combat multidrug-resistant Gram-positive pathogens especially daptomycin-resistant bacteria” (Eur J Med Chem, 2023)
# The source made the active and inactive calls. The calls are words filed in the database; no cut-off is given here.
# What was measured:
# Staphylococcus aureus [1] = experiment: Antibacterial activity against vancomycin-intermediate resistant Staphylococcus aureus Mu 50 assessed as reduction in microbial growth incubated for 24 hrs by broth microdilution method; type: functional
# Enterococcus faecium [2] = experiment: Antibacterial activity against glycopeptide-resistant Enterococcus faecium Efm-HS-0649 assessed as reduction in microbial growth incubated for 24 hrs by broth microdilution method; type: functional
# Enterococcus faecalis [3] = experiment: Antibacterial activity against Enterococcus faecalis EFA 20-1 assessed as reduction in microbial growth incubated for 24 hrs by broth microdilution method; type: functional
# Staphylococcus aureus [4] = experiment: Antibacterial activity against vancomycin-intermediate resistant Staphylococcus aureus ATCC 700699 assessed as reduction in microbial growth incubated for 24 hrs by broth microdilution method; type: functional
# Enterococcus faecalis [5] = experiment: Antibacterial activity against vancomycin-resistant Enterococcus faecalis VREfa 20-1 assessed as reduction in microbial growth incubated for 24 hrs by broth microdilution method; type: functional
# Staphylococcus aureus [6] = experiment: Antibacterial activity against methicillin-resistant Staphylococcus aureus clinical isolate 20-3 infected in iv dosed Kunming mouse model assessed as increase in survival measured after 14 days; type: functional; conditions: Clinical isolate 20-3, 336 h, time 14 day
# Erythrocyte = experiment: Hemolytic activity in rat RBC at 400 ug/ml incubated for 1 hr; type: toxicity, cell-based; conditions: dose 400 µg/ml
# Staphylococcus aureus [7] = experiment: Antibacterial activity against methicillin-susceptible Staphylococcus aureus Newman ATCC 25904 assessed as reduction in microbial growth incubated for 24 hrs by broth microdilution method; type: functional
# Staphylococcus aureus [8] = experiment: Antibacterial activity against methicillin-resistant Staphylococcus aureus USA300 assessed as reduction in microbial growth incubated for 24 hrs by broth microdilution method; type: functional
# Staphylococcus aureus [9] = experiment: Antibacterial activity against methicillin-resistant Staphylococcus aureus clinical isolate 20-1 assessed as reduction in microbial growth incubated for 24 hrs by broth microdilution method; type: functional
# Staphylococcus aureus [10] = experiment: Antibacterial activity against methicillin-resistant Staphylococcus aureus clinical isolate 20-2 assessed as reduction in microbial growth incubated for 24 hrs by broth microdilution method; type: functional
# Staphylococcus aureus [11] = experiment: Antibacterial activity against methicillin-resistant Staphylococcus aureus clinical isolate 20-3 assessed as reduction in microbial growth incubated for 24 hrs by broth microdilution method; type: functional
# Staphylococcus aureus [12] = experiment: Antibacterial activity against methicillin-susceptible Staphylococcus aureus clinical isolate 20-1 assessed as reduction in microbial growth incubated for 24 hrs by broth microdilution method; type: functional
# Staphylococcus aureus [13] = experiment: Antibacterial activity against methicillin-susceptible Staphylococcus aureus ATCC 29213 assessed as reduction in microbial growth incubated for 24 hrs by broth microdilution method; type: functional
# Enterococcus faecium [14] = experiment: Antibacterial activity against Enterococcus faecium EFM 20-1 assessed as reduction in microbial growth incubated for 24 hrs by broth microdilution method; type: functional
# Enterococcus faecalis [15] = experiment: Antibacterial activity against Enterococcus faecalis ATCC 29212 assessed as reduction in microbial growth incubated for 24 hrs by broth microdilution method; type: functional
# [16] = Observed volume of distribution at steady state in CD-1 mouse at 1 mg/kg, iv measured up to 24 hrs by UPLC-MS analysis; type: ADME, organism-based; conditions: in vivo, read-out: Vdss
# Staphylococcus aureus [17] = experiment: Induction of drug resistance against Staphylococcus aureus Newman ATCC 25904 assessed as fold increase in MIC after 15 days by broth microdilution method; type: functional; conditions: time 15.0 day
# Staphylococcus aureus [18] = experiment: Induction of membrane disruption in Staphylococcus aureus at 4 to 16 ug/ml incubated for 4 hrs by propidium iodide staining based flow cytometric analysis; type: functional, organism-based; conditions: dose 4-16 µg/ml
# Staphylococcus aureus [19] = experiment: Antibacterial activity against Staphylococcus aureus assessed as reduction in bacterial growth incubated for 16 to 24 hrs by serial dilution method; type: functional; conditions: time 16-24 hrs
# Staphylococcus aureus [20] = experiment: Antibacterial activity against Staphylococcus aureus assessed as reduction in bacterial growth incubated for 16 to 24 hrs in presence of PG by serial dilution method; type: functional; conditions: time 16-24 hrs
# Staphylococcus aureus [21] = experiment: Ratio of MIC for antibacterial activity against Staphylococcus aureus in presence of PG to MIC for antibacterial activity against Staphylococcus aureus; type: functional
# Staphylococcus aureus [22] = experiment: Antibacterial activity against Staphylococcus aureus assessed as reduction in bacterial growth incubated for 16 to 24 hrs in presence of CAMHB medium by serial dilution method; type: functional; conditions: time 16-24 hrs
# Staphylococcus aureus [23] = experiment: Antibacterial activity against Staphylococcus aureus assessed as reduction in bacterial growth incubated for 16 to 24 hrs in presence of MHB medium by serial dilution method; type: functional; conditions: time 16-24 hrs
# Staphylococcus aureus [24] = experiment: Ratio of MIC for antibacterial activity against Staphylococcus aureus in presence of MHB medium to MIC for antibacterial activity against Staphylococcus aureus CAMHB medium; type: functional
# Staphylococcus aureus [25] = experiment: Potency index, ratio of daptomycin MIC to test compound MIC for antibacterial activity against methicillin-susceptible Staphylococcus aureus Newman ATCC 25904; type: functional
# Enterococcus faecium [26] = experiment: Potency index, ratio of daptomycin MIC to test compound MIC for antibacterial activity against glycopeptide-resistant Enterococcus faecium Efm-HS-0649; type: functional
# Staphylococcus aureus [27] = experiment: Potency index, ratio of daptomycin MIC to test compound MIC for antibacterial activity against methicillin-susceptible Staphylococcus aureus clinical isolate 20-1; type: functional
# Staphylococcus aureus [28] = experiment: Potency index, ratio of daptomycin MIC to test compound MIC for antibacterial activity against methicillin-susceptible Staphylococcus aureus ATCC 29213; type: functional
# Enterococcus faecalis [29] = experiment: Potency index, ratio of daptomycin MIC to test compound MIC for antibacterial activity against Enterococcus faecalis EFA 20-1; type: functional
# Enterococcus faecium [30] = experiment: Potency index, ratio of daptomycin MIC to test compound MIC for antibacterial activity against Enterococcus faecium EFM 20-1; type: functional
# Enterococcus faecalis [31] = experiment: Potency index, ratio of daptomycin MIC to test compound MIC for antibacterial activity against Enterococcus faecalis ATCC 29212; type: functional
# HEK293 = experiment: Cytotoxicity against HEK293 cells assessed as reduction in cell viability at 80 ug/ml after 72 hrs by CCK-8 assay relative to control; type: toxicity, cell-based; conditions: human, hek293, 72 h, at 80 µg/mL
# Staphylococcus aureus [32] = experiment: Antibacterial activity against Staphylococcus aureus infected in zebra fish model assessed as survival rate at 10 mg/kg, ip after 8 hrs by relative to control; type: functional
# Staphylococcus aureus [33] = experiment: Antibacterial activity against Staphylococcus aureus infected in zebra fish model assessed as survival rate at 10 mg/kg, ip after 24 hrs by relative to control; type: functional
# Staphylococcus aureus [34] = experiment: Antimicrobial activity in Staphylococcus aureus Newman ATCC 25904 infected in ICR mouse excisional wound model assessed as decrease in bacterial growth at 20 mg/kg administered topically and measured after 24 hrs relative to control; type: functional; design: scale not given: the % may be the effect or the level left; conditions: route top
# [35] = Toxicity in ICR mouse excisional wound model infected with Staphylococcus aureus Newman ATCC 25904 assessed as survival at 20 mg/kg administered topically for 7 days; type: organism-based; conditions: in vivo, topical_or_ocular, 168 h, route top, time 7 day
# [36] = Toxicity in ICR mouse excisional wound model infected with Staphylococcus aureus Newman ATCC 25904 assessed as change in weight at 20 mg/kg administered topically for 7 days; type: organism-based; conditions: in vivo, topical_or_ocular, 168 h, route top, time 7 day
# [37] = Solubility of compound in deionized water at >10 mg/ml at room temperature; type: physicochemical; conditions: buffer
# [38] = Solubility of compound in saline at >10 mg/ml at room temperature; type: physicochemical; conditions: buffer
# [39] = Half life in PBS at pH 7.2 to 7.4 at 37 degC for 24 hrs; type: ADME
structure (smiles),measurement,setting,value
CN[C@H](CC(C)C)C(=O)N[C@H]1C(=O)N[C@@H](CC(N)=O)C(=O)N[C@H]2C(=O)N[C@H]3C(=O)N[C@H](C(=O)N[C@H](C(=O)O)c4cc(O)cc(O)c4-c4cc3ccc4O)[C@H](O)c3ccc(c(Cl)c3)Oc3cc2cc(c3O[C@@H]2O[C@H](CO)[C@@H](O)[C@H](O)[C@H]2O[C@H]2C[C@](C)(N)[C@H](O)[C@H](C)O2)Oc2ccc(cc2Cl)[C@H]1O [VANCOMYCIN],MIC,Staphylococcus aureus [1],8 µg/mL
same,MIC,Enterococcus faecium [2],> 128 µg/mL
same,MIC,Enterococcus faecalis [3],1 µg/mL
same,MIC,Staphylococcus aureus [4],8 µg/mL
same,MIC,Enterococcus faecalis [5],> 16 µg/mL
CCCCCCCCCC(=O)N[C@@H](Cc1c[nH]c2ccccc12)C(=O)N[C@H](CC(N)=O)C(=O)N[C@@H](CC(=O)O)C(=O)N[C@@H]1C(=O)NCC(=O)N[C@@H](CCCN)C(=O)N[C@@H](CC(=O)O)C(=O)N[C@H](C)C(=O)N[C@@H](CC(=O)O)C(=O)NCC(=O)N[C@H](CO)C(=O)N[C@@H]([C@H](C)CC(=O)O)C(=O)N[C@@H](CC(=O)c2ccccc2N)C(=O)O[C@@H]1C,ED50,Staphylococcus aureus [6],0.2 mg/kg
same,Activity,Erythrocyte,Non-Toxic
same,MIC,Staphylococcus aureus [7],2 µg/mL
same,MIC,Staphylococcus aureus [8],2 µg/mL
same,MIC,Staphylococcus aureus [1],8 µg/mL
same,MIC,Enterococcus faecium [2],8 µg/mL
same,MIC,Staphylococcus aureus [9],1 µg/mL
same,MIC,Staphylococcus aureus [10],1 µg/mL
same,MIC,Staphylococcus aureus [11],1 µg/mL
same,MIC,Staphylococcus aureus [12],1 µg/mL
same,MIC,Staphylococcus aureus [13],1 µg/mL
same,MIC,Enterococcus faecalis [3],4 µg/mL
same,MIC,Enterococcus faecium [14],8 µg/mL
same,MIC,Enterococcus faecalis [15],4 µg/mL
same,MIC,Staphylococcus aureus [4],8 µg/mL
same,MIC,Enterococcus faecalis [5],8 µg/mL
same,Vd,[16],0.115 L/kg
same,fold change (FC),Staphylococcus aureus [17],4
same,Activity,Staphylococcus aureus [18],Active
same,MIC,Staphylococcus aureus [19],4 µg/mL
same,MIC,Staphylococcus aureus [20],128 µg/mL
same,Ratio,Staphylococcus aureus [21],32
same,MIC,Staphylococcus aureus [22],4 µg/mL
same,MIC,Staphylococcus aureus [23],64 µg/mL
same,Ratio,Staphylococcus aureus [24],16
CCCCCCCCCC(=O)N[C@@H](Cc1c[nH]c2ccccc12)C(=O)N[C@H](CC(N)=O)C(=O)N[C@@H](CC(=O)O)C(=O)N[C@@H]1C(=O)NCC(=O)N[C@@H](CCCN)C(=O)N[C@@H](CC(=O)O)C(=O)N[C@H](C)C(=O)N[C@@H](CC(=O)O)C(=O)NCC(=O)N[C@H](CO)C(=O)N[C@@H]([C@H](C)CC(=O)O)C(=O)N[C@@H](CC(=O)c2ccccc2NCCCCCC)C(=O)O[C@@H]1C,ED50,Staphylococcus aureus [6],0.29 mg/kg
same,Activity,Erythrocyte,Non-Toxic
same,MIC,Staphylococcus aureus [7],0.5 µg/mL
same,MIC,Staphylococcus aureus [8],0.125 µg/mL
same,MIC,Staphylococcus aureus [1],2 µg/mL
same,MIC,Enterococcus faecium [2],0.25 µg/mL
same,MIC,Staphylococcus aureus [9],≤ 0.008 µg/mL
same,MIC,Staphylococcus aureus [10],0.03 µg/mL
same,MIC,Staphylococcus aureus [11],≤ 0.008 µg/mL
same,MIC,Staphylococcus aureus [12],0.015 µg/mL
same,MIC,Staphylococcus aureus [13],≤ 0.008 µg/mL
same,MIC,Enterococcus faecalis [3],0.5 µg/mL
same,MIC,Enterococcus faecium [14],1 µg/mL
same,MIC,Enterococcus faecalis [15],0.5 µg/mL
same,MIC,Staphylococcus aureus [4],2 µg/mL
same,MIC,Enterococcus faecalis [5],0.5 µg/mL
same,Ratio,Staphylococcus aureus [25],4
same,Ratio,Enterococcus faecium [26],4
same,Ratio,Staphylococcus aureus [27],>=4
same,Ratio,Staphylococcus aureus [28],>=4
same,Ratio,Enterococcus faecalis [29],>=4
same,Ratio,Enterococcus faecium [30],>=4
same,Ratio,Enterococcus faecalis [31],>=4
same,Activity,HEK293,~ 100%
same,survival at 10 mg/kg,Staphylococcus aureus [32],37.5%
same,survival at 10 mg/kg,Staphylococcus aureus [33],25%
same,Vd,[16],0.2 L/kg
same,Activity,Staphylococcus aureus [34],100%
same,Activity,[35],Non-Toxic
same,Activity,[36],Non-Toxic
same,solubility,[37],Soluble
same,solubility,[38],Soluble
same,half-life,[39],19 days
same,fold change (FC),Staphylococcus aureus [17],4
same,Activity,Staphylococcus aureus [18],Active
same,MIC,Staphylococcus aureus [19],0.5 µg/mL
same,MIC,Staphylococcus aureus [20],256 µg/mL
same,Ratio,Staphylococcus aureus [21],512
same,MIC,Staphylococcus aureus [22],0.5 µg/mL
same,MIC,Staphylococcus aureus [23],4 µg/mL
same,Ratio,Staphylococcus aureus [24],8
"CCCCCCCCCC(=O)N[C@@H](Cc1c[nH]c2ccccc12)C(=O)N[C@H](CC(N)=O)C(=O)N[C@@H](CC(=O)O)C(=O)N[C@@H]1C(=O)NCC(=O)N[C@@H](CCCN)C(=O)N[C@@H](CC(=O)O)C(=O)N[C@H](C)C(=O)N[C@@H](CC(=O)O)C(=O)NCC(=O)N[C@H](CO)C(=O)N[C@@H]([C@H](C)CC(=O)O)C(=O)N[C@@H](CC(=O)c2ccccc2NCCCC)C(=O)O[C@@H]1C (single isomer, unassigned)",MIC,Staphylococcus aureus [7],0.5 µg/mL
same,MIC,Staphylococcus aureus [8],0.5 µg/mL
same,MIC,Staphylococcus aureus [1],4 µg/mL
same,MIC,Enterococcus faecium [2],1 µg/mL
same,Ratio,Staphylococcus aureus [25],2
same,Ratio,Enterococcus faecium [26],2
CCCCCCCCCC(=O)N[C@@H](Cc1c[nH]c2ccccc12)C(=O)N[C@H](CC(N)=O)C(=O)N[C@@H](CC(=O)O)C(=O)N[C@@H]1C(=O)NCC(=O)N[C@@H](CCCN)C(=O)N[C@@H](CC(=O)O)C(=O)N[C@H](C)C(=O)N[C@@H](CC(=O)O)C(=O)NCC(=O)N[C@H](CO)C(=O)N[C@@H]([C@H](C)CC(=O)O)C(=O)N[C@@H](CC(=O)c2ccccc2NCc2ccccc2)C(=O)O[C@@H]1C,MIC,Staphylococcus aureus [7],0.5 µg/mL
same,MIC,Staphylococcus aureus [8],0.5 µg/mL
same,MIC,Staphylococcus aureus [1],4 µg/mL
same,MIC,Enterococcus faecium [2],1 µg/mL
same,Ratio,Staphylococcus aureus [25],4
same,Ratio,Enterococcus faecium [26],4
